Test [1] addresses T1, peripheral receptors for benzodiazepines ([^3 H]-PK 11195) (Rattus norvegicus, UniProt P16257).
T1 construct: on microsomal fractions from rat heart; from tissue; host or cells: rat heart, microsomal fractions
Description: Displacement of [3H]-PK 11195, rat heart microsomal fractions.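 Also: radioligand binding with bound label split from free by vacuum filtration, then quantified through liquid scintillation counting.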 The test is classed as binding. The conditions noted are these: corrected for DMSO, read-out: K0.5, peripheral receptors, [^3 H]--PK 11195.

Test [2] deals with T2, peripheral receptors for benzodiazepines ([^3 H]-R05-4864) (Rattus norvegicus, UniProt P16257).
T2 construct: on microsomal fractions from rat heart; from tissue; host or cells: rat heart, microsomal fractions
Put plainly: Displacement of [3H]-R05-4864, rat heart microsomal fractions.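 Also: Read-out is filter-retained bound radioligand, separated from free ligand by vacuum filtration over GF/C and counted by liquid scintillation, with compounds first dissolved in DMSO.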 The test is classed as binding. The conditions noted are these: corrected for DMSO, read-out: K0.5, peripheral receptors, [^3 H]--RO 54864.

For another test, the system named is porcine coronary. Put plainly: Porcine coronary relaxation (PGF2α-precontracted coronary segments). Also on record: species or system pig (Yucatan mini pig). The following applies: for EC20 / EC50: Sus scrofa; for EC20: read-out: DE20, effect on coronary tension induced by PGF2α; for EC50: read-out: DE50, effect on coronary tension induced by PGF2α; for level of relaxation obtained as well as the 50% effect value (K0.5) obtained by displacement: overall judgement of relaxation and K0.5. The protocol:
All the products studied were dissolved in DMSO at a concentration of 10^-2 M, then diluted to the desired concentrations in the experimental media. All of the ED20, ED50 and K0.5 values were corrected for the values obtained with DMSO under the same conditions of dilution.
Coronaries were taken on the heart of pigs (Yucatan mini pig), anesthetized under stresnil and pentobarbital. Proximal segments of the coronary were placed in an organ tank filled with Ringer solution at 37° C. The segments were tightened progressively to a base tension of around 6 g and contracted by the addition of PGF2α at a concentration of 4.10^-6 M. The potential of the products of the present invention to relax the coronary artery were then tested.
All of the compounds were tested for their capacity to relax the porcine coronary precontracted by PGF2α.

In test [3] the target is central receptors for benzodiazepines. Put plainly: Displacement of [3H]-RO 151788, rat central nervous system microsomal fractions. The test is classed as binding. The conditions noted are these: corrected for DMSO, read-out: K0.5, central receptors, [^3 H]--RO 151788.
Where [4] appears, read: porcine coronary segments, 37° C., PGF2α 4.10^-6 M, corrected for DMSO.
The mark [5] stands for this setting: porcine coronary segments, PGF2α 4.10^-6 M.

Structures are written as SMILES. Read-outs that look alike come from different tables or passages of the source.

For `CCOC(=O)COc1ccc2c(=O)cc(-c3ccccc3)oc2c1` [Efloxate, efloxate, reference compound], the IC50 in test [1] was 20 µM. Further, in test [2], the IC50 was 200 µM. Also, in the test with porcine coronary (setting [4]), the EC20 was found to be 35.8 µM and the EC50 turned out to be 3.94 µM.
Take `CN1C(=O)CN=C(c2ccccc2)c2cc(Cl)ccc21` [Diazepam, diazepam, reference compound]: the EC20 in the test with porcine coronary is 16.4 µM.
Consider `CN1CCN(C(=O)Cn2c(=O)n3cc(-c4ccccc4)nc3c3ccccc32)CC1` [Example 12, 2-phenyl-6-N-methylpiperazinocarbonylmethyl-5-oxo-5,6-dihydroimidazo[1,2-c]quinazoline], for which, in test [1], the IC50 was found to be 80 µM. Moreover, the IC50 in test [2] is 40 µM. In the test with porcine coronary (setting [4]), the EC20 came to 587 µM and the EC50 was determined as 31.9 µM.
On to `CCN(CC)C(=O)Cn1c(=O)n2cc(-c3ccccc3)nc2c2ccccc21` [Example 11, 2-phenyl-6-N,N-diethylaminocarbonylmethyl-5-oxo-5,6-dihydroimidazo[1,2-c]quinazoline], for which the IC50 in test [3] is over 100 µM. In the test with porcine coronary (setting [4]), the EC20 is 6.93 µM and the EC50 amounted to 1.13 µM. In addition, the “level of relaxation obtained as well as the 50% effect value (K0.5) obtained by displacement” value with porcine coronary is recorded as “particularly favorable”.
As for `CCOC(=O)Cn1c(=O)n2cc(-c3ccccc3)nc2c2ccccc21` [Example 13, 2-phenyl-6-ethoxycarbonylmethyl-5-oxo-5,6-dihydroimidazo[1,2-c]quinazoline], the figures for the IC50 in test [1], in test [2] and in test [3] were 100 µM, over 100 µM and over 100 µM, respectively. Moreover, in the test on porcine coronary (setting [4]), the EC20 came to 84.2 µM. In addition, in the test on porcine coronary (setting [4]), the EC50 amounted to 7.15 µM.
As for `CCN(CC)C(=O)Cn1c(=O)n2cc(-c3ccc(OC)c(OC)c3)nc2c2ccccc21` [Example 23, 2-(3,4-dimethoxyphenyl)-6-N,N-diethylaminocarbonylmethyl-5-oxo-5,6-dihydroimidazo[1,2-c]quinazoline], the IC50 in test [3] was over 100 µM. In the test on porcine coronary (setting [4]), the EC20 worked out at 0.74 µM and the EC50 was found to be 0.18 µM.
Take `CCOC(=O)c1cn2c(=O)n(Cc3ccccc3)c3ccccc3c2n1` [Example 10, 2-ethoxycarbonyl-6-benzyl-5-oxo-5,6-dihydroimidazo[1,2-c]quinazoline]: the IC50 in test [1] was about 100 µM; in test [2], 8.8 µM. Besides, in the test on porcine coronary (setting [4]), the EC20 is 3.33 µM. Besides, the EC50 in the test with porcine coronary (setting [4]) is 1.04 µM. Further, in the test on porcine coronary, the “level of relaxation obtained as well as the 50% effect value (K0.5) obtained by displacement” value is given as “particularly favorable”.
For `O=C(c1ccccc1)c1cn2c(=O)[nH]c3ccccc3c2n1` [Example 9, 2-benzoyl-5-oxo-5,6-dihydroimidazo[1,2-c]quinazoline], the values for the IC50 in test [1] and in test [2] were 28 µM and 13 µM, respectively. Moreover, the “Effect on coronary tension induced by PGF2α (in words)” value with porcine coronary (setting [5]) is “No effect”.
For the compound `CCc1c(-c2ccccc2)nc2c3ccccc3n(CC(=O)N(CC)CC)c(=O)n12` [Example 25, 2-phenyl-3-ethyl-6-N,N-diethylaminocarbonylmethyl-5-oxo-5,6-dihydroimidazo[1,2-c]quinazoline], the IC50 in test [1] amounted to 0.032 µM; in test [2], 0.05 µM. Also, in the test on porcine coronary (setting [4]), the EC20 was over 100 µM. Further, in the test on porcine coronary (setting [4]), the EC50 worked out at 370 µM.
Take `CCOC(=O)c1cn2c(=O)n(CC(=O)N(CC)CC)c3ccccc3c2n1` [Example 2, 2-Ethoxycarbonyl-6-N,N-diethylaminocarbonylmethyl-5-oxo-5,6-dihydroimidazo[1,2-c]quinazoline]: in test [1], the IC50 was found to be 0.55 µM.
As to `Cn1c(=O)n2cc(-c3ccccc3)nc2c2ccccc21` [Example 29, 2-phenyl-6-methyl--5-oxo-5,6-dihydroimidazo[1,2-c]quinazoline], in test [1], the IC50 is over 100 µM. Moreover, in test [2], the IC50 was over 100 µM. Moreover, in the test with porcine coronary (setting [4]), the EC20 is over 100 µM and the EC50 was over 100 µM.
Consider `CCC(C)N(C)C(=O)c1cc2ccccc2c(-c2ccccc2Cl)n1` (stereo not shown) [PK 11195, reference compound], for which, in the test on porcine coronary, the EC20 is 9.13 µM and the EC50 was determined as 1.66 µM.
The matching figures for `CN1C(=O)CN=C(c2ccc(Cl)cc2)c2cc(Cl)ccc21` [Example R05-4864, reference compound]: 9.38 µM and 1.48 µM.
On to `O=c1[nH]c2ccccc2c2nc(-c3ccccc3)cn12` [Example 3, 2-Phenyl-5-oxo-5,6-dihydroimidazo[1,2-c]quinazoline], for which the IC50 in test [1] stood at 4.5 µM. Moreover, the IC50 in test [2] is over 100 µM. In the test on porcine coronary (setting [4]), the EC20 was 35.4 µM and the EC50 is 7.48 µM.
Turning to `CCN(CC)C(=O)Cn1c(=O)n2c(C)c(-c3ccccc3)nc2c2ccccc21` [Example 20, 2-phenyl-3-methyl-6--N,N-diethylaminocarbonylmethyl-5-oxo-5,6-dihydroimidazo[1,2-c]quinazoline], the IC50 in test [2] worked out at 0.0086 µM. In addition, in the test with porcine coronary (setting [4]), the EC20 amounted to 3.46 µM and the EC50 was determined as 0.87 µM.
Consider `CCOC(=O)c1cn2c(=O)n(C)c3ccccc3c2n1` [Example 8, 2-ethoxycarbonyl-6-methyl-5-oxo-5,6-dihydroimidazo[1,2-c]quinazoline], for which the IC50 in test [1] was over 100 µM; in test [2], 30 µM. Also, the “Effect on coronary tension induced by PGF2α (in words)” value in the test with porcine coronary (setting [5]) is on record as “No effect”.
As to `CCN(CC)C(=O)Cn1c(=O)n2cc(-c3ccccc3Cl)nc2c2ccccc21` [Example 30, 2-(o-chlorophenyl)-6-N,N-diethylaminocarbonylmethyl-5-oxo-5,6-dihydroimidazo[1,2-c]quinazoline], in test [1], the IC50 is 0.28 µM. Moreover, the IC50 in test [2] is 0.034 µM. In the test with porcine coronary (setting [4]), the EC20 amounted to 73.9 µM and the EC50 amounted to 10.4 µM.
Regarding `CCN(CC)C(=O)Cn1c(=O)n2cc(C(=O)c3ccccc3)nc2c2ccccc21` [Example 6, 2-Benzoyl-6-N,N-diethylaminocarbonylmethyl-5-oxo-5,6-dihydroimidazo[1,2-c]quinazoline], the IC50 in test [1] was found to be 0.22 µM; in test [2], 0.2 µM.
Regarding `CCN(CC)C(=O)Cn1c(=O)n2c(CN(C)C)c(-c3ccccc3)nc2c2ccccc21` [Example 5, 2-Phenyl-3-dimethylaminomethyl-6-N,N-diethylaminocarbonylmethyl-5-oxo-5,6-dihydroimidazo[1,2-c]quinazoline], in test [1], the IC50 is 2.2 µM. Further, the IC50 in test [2] is 4.5 µM. In addition, in the test with porcine coronary (setting [4]), the EC20 is 144 µM and the EC50 is 18.9 µM.
For the compound `CCN(CC)C(=O)Cn1c(=O)n2cc(-c3ccccc3)nc2c2c(Cl)cccc21` [Example 31, 2-phenyl-6-N,N-diethylaminocarbonylmethyl-10-chloro-5-oxo-5,6-dihydroimidazo[1,2-c]quinazoline], the IC50 stood at 1.4 µM in test [1], 2.8 µM in test [2] and 100 µM in test [3].
With `CCCN(CCC)C(=O)Cn1c(=O)n2cc(-c3ccccc3)nc2c2ccccc21` [Example 28, 2-phenyl-6-N,N-dipropylaminocarbonylmethyl-5-oxo-5,6-dihydroimidazo[1,2-c]quinazoline], the IC50 in test [3] is 100 µM. Moreover, in the test with porcine coronary (setting [4]), the EC20 was over 100 µM and the EC50 worked out at 196 µM. In the test on porcine coronary, the “level of relaxation obtained as well as the 50% effect value (K0.5) obtained by displacement” value is recorded as “particularly favorable”.
Consider `OCCN(CCO)c1nc(N2CCCCC2)c2nc(N(CCO)CCO)nc(N3CCCCC3)c2n1` [Dipyridamole, dipyridamole, reference compound], for which the IC50 in test [1] is 0.3 µM. In addition, the IC50 in test [2] is 0.2 µM. Besides, in the test with porcine coronary (setting [4]), the EC20 came out at 1.61 µM and the EC50 amounted to 0.446 µM.

Source of the values: patent publication US5128338A, “Imidazo [1,2-c] quinazoline compounds” (priority 1990, dated 1992).
